{
  "source": "patent US9371319B2",
  "about": "“Pyrrolopyridineamino derivatives as MPS1 inhibitors” (priority 2011, dated 2016)",
  "data": [
    {"biological_target": "T1, full length MPS1 (Homo sapiens, UniProt P33981)", "T1 sequence (P33981 1-857)": "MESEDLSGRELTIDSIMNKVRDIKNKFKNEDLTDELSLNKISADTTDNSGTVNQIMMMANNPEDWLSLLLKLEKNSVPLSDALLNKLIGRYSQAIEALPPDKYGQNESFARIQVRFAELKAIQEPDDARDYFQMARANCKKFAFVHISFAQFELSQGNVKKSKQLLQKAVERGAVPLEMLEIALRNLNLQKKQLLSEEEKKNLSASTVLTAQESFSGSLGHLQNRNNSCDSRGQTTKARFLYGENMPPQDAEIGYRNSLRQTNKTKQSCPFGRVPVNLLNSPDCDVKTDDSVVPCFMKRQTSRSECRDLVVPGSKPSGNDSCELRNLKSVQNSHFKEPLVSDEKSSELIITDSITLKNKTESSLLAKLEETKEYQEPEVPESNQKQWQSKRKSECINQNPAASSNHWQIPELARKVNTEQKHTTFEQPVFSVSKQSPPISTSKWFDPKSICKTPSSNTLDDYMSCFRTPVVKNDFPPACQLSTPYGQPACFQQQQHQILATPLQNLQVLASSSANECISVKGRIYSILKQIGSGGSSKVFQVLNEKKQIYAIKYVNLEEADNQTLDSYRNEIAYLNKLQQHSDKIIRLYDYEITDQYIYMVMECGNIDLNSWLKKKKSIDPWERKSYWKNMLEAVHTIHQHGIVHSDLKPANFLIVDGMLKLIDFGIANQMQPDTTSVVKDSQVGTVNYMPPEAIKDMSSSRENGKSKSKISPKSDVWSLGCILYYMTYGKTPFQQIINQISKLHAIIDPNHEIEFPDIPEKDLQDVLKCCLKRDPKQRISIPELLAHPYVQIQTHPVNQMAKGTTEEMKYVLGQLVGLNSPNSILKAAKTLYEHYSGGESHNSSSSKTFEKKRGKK", "test": "biochemical", "description": "Measurement of Inhibition of MPS1 Kinase\n(5 μM), ATP (10 μM), either DMSO (1% v/v) or the test compound (in the range 0.25 nM-100 μM in 1% DMSO) and assay buffer (50 mM HEPES (pH 7.0), 0.02% NaN3, 0.01% BSA, 0.1 mM Orthovandate, […], 1 μM DTT, Roche protease inhibitor). The reaction was carried out for 60 min at room temperature and stopped by the addition of buffer (10 μl) containing 20 mM EDTA, 0.05% (v/v) Brij-35, in 0.1M HEPES-buffered saline (Free acid, Sigma, UK). The plate was read on a Caliper EZ reader II (Caliper Life Sciences).\nThe % inhibition of the compounds is calculated relative to the means of selected control wells. […] The % inhibitions at each concentration are then fitted to a 4 parameter logistic fit: y=(a+((b−a)/(1+((c/x^d)))) where a=asym min, b=asym max, c=IC50 and d=hill coefficient", "units": {"IC50": "nM"}, "values": [
      {"smiles": "Cn1cncc1-c1ccc(Nc2cc3c(cn2)cc(-c2cnco2)n3C(=O)OC(C)(C)C)c(Cl)c1", "note": "[Example 91]", "IC50": 6},
      {"smiles": "Cc1ccc(-n2c(-c3cnn(C)c3)cc3cnc(Nc4ccc(C(=O)N(C)C)cc4Cl)cc32)nc1", "note": "[Example 92]", "IC50": 43},
      {"smiles": "CN(C)C(=O)c1ccc(Nc2cc3c(cn2)cc(-c2cnn(C)c2)n3-c2ncccn2)c(Cl)c1", "note": "[Example 93]", "IC50": 94},
      {"smiles": "CN(C)C(=O)c1ccc(Nc2cc3c(cn2)cc(-c2cnn(C)c2)n3-c2ccccn2)c(Cl)c1", "note": "[Example 94]", "IC50": 78},
      {"smiles": "COc1ccccc1Nc1cc2c(cn1)cc(-c1cnco1)n2C(=O)OC(C)(C)C", "note": "[Example 96]", "IC50": 254},
      {"smiles": "COc1cc(C(=O)N2CC(OC)C2)ccc1Nc1cc2c(cn1)cc(-c1cnco1)n2C(=O)OC(C)(C)C", "note": "[Example 97]", "IC50": 10},
      {"smiles": "COc1cc(-c2cnn(C)c2)ccc1Nc1cc2c(cn1)cc(-c1cnn(C)c1)n2C(=O)OC(C)C", "note": "[Example 102]", "IC50": 7},
      {"smiles": "COc1cc(-c2cn(C)nc2C)ccc1Nc1cc2c(cn1)cc(-c1cnn(C)c1)n2C(=O)OC(C)C", "note": "[Example 103]", "IC50": 2},
      {"smiles": "COCCn1c(-c2cnn(C)c2)cc2cnc(Nc3ccc(-c4cnc(C)n4C)cc3Cl)cc21", "note": "[Example 104]", "IC50": 83},
      {"smiles": "Cc1ncc(-c2ccc(Nc3cc4c(cn3)cc(-c3cnn(C)c3)n4CC3CC3)c(Cl)c2)n1C", "note": "[Example 105]", "IC50": 29},
      {"smiles": "Cc1ncc(-c2ccc(Nc3cc4c(cn3)cc(-c3cnco3)n4C(=O)OC(C)C)c(Cl)c2)n1C", "note": "[Example 106]", "IC50": 2},
      {"smiles": "Cc1ncc(-c2ccc(Nc3cc4c(cn3)cc(-c3cnco3)n4C(=O)OC(C)(C)C)c(Cl)c2)n1C", "note": "[Example 107]", "IC50": 2},
      {"smiles": "Cc1ncc(-c2ccc(Nc3cc4c(cn3)cc(-c3cnn(C)c3)n4C(=O)OC(C)C)cc2)n1C", "note": "[Example 108]", "IC50": 2},
      {"smiles": "CN(C)C(=O)c1ccc(Nc2cc3c(cn2)cc(-c2cnn(C)c2)n3S(=O)(=O)C2CCCC2)c(Cl)c1", "note": "[Example 110, 3-Chloro-4-(1-(cyclopentylsulfonyl)-2-(1-methyl-1H-pyrazol-4-yl)-1H-pyrrolo[3,2-c]pyridin-6-ylamino)-N,N-dimethylbenzamide]", "IC50": 92},
      {"smiles": "COc1cc(C(=O)NC2CCN(C)CC2)ccc1Nc1cc2[nH]c(-c3cnn(C)c3)cc2cn1", "note": "[Example 111, 3-Methoxy-4-((2-(1-methyl-1H-pyrazol-4-yl)-1H-pyrrolo[3,2-c]pyridin-6-yl)amino)-N-(1-methylpiperidin-4-yl)benzamide]", "IC50": 42},
      {"smiles": "COc1ncccc1Nc1cc2[nH]c(-c3cnn(C)c3)cc2cn1", "note": "[Example 112, N-(2-Methoxypyridin-3-yl)-2-(1-methyl-1H-pyrazol-4-yl)-1H-pyrrolo[3,2-c]pyridin-6-amine]", "IC50": 21},
      {"smiles": "CN(C)C(=O)c1ccc(Nc2cc3[nH]c(-c4cnn(C)c4)cc3cn2)c(OC(F)(F)F)c1", "note": "[Example 113, N,N-Dimethyl-4-(2-(1-methyl-1H-pyrazol-4-yl)-1H-pyrrolo[3,2-c]pyridin-6-ylamino)-3-(trifluoromethoxy)benzamide]", "IC50": 68},
      {"smiles": "COc1ccc(C(=O)N(C)C)cc1Nc1cc2[nH]c(-c3cnn(C)c3)cc2cn1", "note": "[Example 114, 4-Methoxy-N,N-dimethyl-3-(2-(1-methyl-1H-pyrazol-4-yl)-1H-pyrrolo[3,2-c]pyridin-6-ylamino)benzamide]", "IC50": 497},
      {"smiles": "COc1cc(C(=O)N2CCS(=O)(=O)CC2)ccc1Nc1cc2[nH]c(-c3cnn(C)c3)cc2cn1", "note": "[Example 115, (3-Methoxy-4-(2-(1-methyl-1H-pyrazol-4-yl)-1H-pyrrolo[3,2-c]pyridin-6-ylamino)phenyl)(thiomorpholino)methanone-S,S-dioxide]", "IC50": 7},
      {"smiles": "COc1cc(CN2CCS(=O)(=O)CC2)ccc1Nc1cc2[nH]c(-c3cnn(C)c3)cc2cn1", "note": "[Example 116, N-(2-Methoxy-4-(thiomorpholinomethyl)phenyl)-2-(1-methyl-1H-pyrazol-4-yl)-1H-pyrrolo[3,2-c]pyridin-6-amine-S,S-dioxide]", "IC50": 10},
      {"smiles": "COc1cc(C(=O)N2CCOCC2)ccc1Nc1cc2[nH]c(-c3cnn(C)c3)cc2cn1", "note": "[Example 118, (3-Methoxy-4-(2-(1-methyl-1H-pyrazol-4-yl)-1H-pyrrolo[3,2-c]pyridin-6-ylamino)phenyl)(morpholino)methanone]", "IC50": 12},
      {"smiles": "COCCNC(=O)c1ccc(Nc2cc3[nH]c(-c4cnn(C)c4)cc3cn2)c(OC)c1", "note": "[Example 119, 3-Methoxy-N-(2-methoxyethyl)-4-(2-(1-methyl-1H-pyrazol-4-yl)-1H-pyrrolo[3,2-c]pyridin-6-ylamino)benzamide]", "IC50": 19},
      {"smiles": "COc1cc(C(=O)N2CC(OC)C2)ccc1Nc1cc2[nH]c(-c3cnn(C)c3)cc2cn1", "note": "[Example 120, (3-Methoxy-4-(2-(1-methyl-1H-pyrazol-4-yl)-1H-pyrrolo[3,2-c]pyridin-6-ylamino)phenyl)(3-methoxyazetidin-1-yl)methanone]", "IC50": 7},
      {"smiles": "CN(C)C(=O)c1cc(Cl)c(Nc2cc3[nH]c(-c4cnn(C)c4)cc3cn2)c(Cl)c1", "note": "[Example 121, 3,5-Dichloro-N,N-dimethyl-4-(2-(1-methyl-1H-pyrazol-4-yl)-1H-pyrrolo[3,2-c]pyridin-6-ylamino)benzamide]", "IC50": 91},
      {"smiles": "Cn1cc(-c2cc3cnc(Nc4ccc(-c5ccn(C)n5)cc4Cl)cc3[nH]2)cn1", "note": "[Example 124, N-(2-Chloro-4-(1-methyl-1H-pyrazol-3-yl)phenyl)-2-(1-methyl-1H-pyrazol-4-yl)-1H-pyrrolo[3,2-c]pyridin-6-amine]", "IC50": 52},
      {"smiles": "Cn1cc(-c2cc3cnc(Nc4ccc(-c5cncn5C)cc4Cl)cc3[nH]2)cn1", "note": "[Example 125, N-(2-Chloro-4-(1-methyl-1H-imidazol-5-yl)phenyl)-2-(1-methyl-1H-pyrazol-4-yl)-1H-pyrrolo[3,2-c]pyridin-6-amine]", "IC50": 4},
      {"smiles": "COc1ccc(Nc2cc3c(cn2)cc(-c2cn[nH]c2)n3C)cc1OC", "note": "[Example 126, N-(3,4-dimethoxyphenyl)-1-methyl-2-(1H-pyrazol-4-yl)-1H-pyrrolo[3,2-c]pyridin-6-amine]", "IC50": 26},
      {"smiles": "Cn1cc(-c2cc3cnc(Nc4ccc(-n5cncn5)cc4Cl)cc3[nH]2)cn1", "note": "[Example 129, N-(2-Chloro-4-(1H-1,2,4-triazol-1-yl)phenyl)-2-(1-methyl-1H-pyrazol-4-yl)-1H-pyrrolo[3,2-c]pyridin-6-amine]", "IC50": 55},
      {"smiles": "Cn1cc(-c2cc3cnc(Nc4ccc(F)cc4Cl)cc3[nH]2)cn1", "note": "[Example 130, N-(2-Chloro-4-fluorophenyl)-2-(1-methyl-1H-pyrazol-4-yl)-1H-pyrrolo[3,2-c]pyridin-6-amine]", "IC50": 510},
      {"smiles": "Cn1cc(-c2cc3cnc(Nc4ccc(S(C)(=O)=O)cc4Cl)cc3[nH]2)cn1", "note": "[Example 131, N-(2-Chloro-4-(methylsulfonyl)phenyl)-2-(1-methyl-1H-pyrazol-4-yl)-1H-pyrrolo[3,2-c]pyridin-6-amine]", "IC50": 24},
      {"smiles": "Cn1cc(-c2cc3cnc(Nc4ccc(OC(F)F)cc4Cl)cc3[nH]2)cn1", "note": "[Example 132, N-(2-Chloro-4-(difluoromethoxy)phenyl)-2-(1-methyl-1H-pyrazol-4-yl)-1H-pyrrolo[3,2-c]pyridin-6-amine]", "IC50": 288},
      {"smiles": "CNC(=O)c1ccc(Nc2cc3[nH]c(-c4cnn(C)c4)cc3cn2)c(OC)c1", "note": "[Example 133, 3-Methoxy-N-methyl-4-(2-(1-methyl-1H-pyrazol-4-yl)-1H-pyrrolo[3,2-c]pyridin-6-ylamino)benzamide]", "IC50": 27},
      {"smiles": "CNC(=O)c1ccc(Nc2cc3[nH]c(-c4cnn(C)c4)cc3cn2)c(Cl)c1", "note": "[Example 134, 3-Chloro-N-methyl-4-(2-(1-methyl-1H-pyrazol-4-yl)-1H-pyrrolo[3,2-c]pyridin-6-ylamino)benzamide]", "IC50": 20},
      {"smiles": "COc1ccc(Nc2cc3[nH]c(-c4cnn(CC(=O)N(C)C)c4)cc3cn2)c(OC)c1", "note": "[Example 135, 2-(4-(6-(2,4-Dimethoxyphenylamino)-1H-pyrrolo[3,2-c]pyridin-2-yl)-1H-pyrazol-1-yl)-N,N-dimethylacetamide]", "IC50": 821},
      {"smiles": "Cn1cc(-c2cc3cnc(Nc4ccc(N5CCCC5=O)cc4Cl)cc3[nH]2)cn1", "note": "[Example 136, 1-(3-chloro-4-((2-(1-methyl-1H-pyrazol-4-yl)-1H-pyrrolo[3,2-c]pyridin-6-yl)amino)phenyl)pyrrolidin-2-one]", "IC50": 18}
    ]}
  ]
}
